Laboratory results: patent US10548993B2, “Metal-encapsulated carbonaceous dots” (UNIVERSITY OF GEORGIA RESEARCH FOUNDATION, INC., priority 2014, dated 2020)

Assays:
[1] = comparison value for Gd-DTPA, literature references; cited from earlier work
U87MG cells = experiment: Cytotoxicity study, MTT assay with 2.5 mM Ca(II); type: cell-based, human; details: 24 h
Description: Gd@C-dots were also subjected to a cytotoxicity study with U87MG cells using standard MTT assays. The cells were first seeded in 96-well plates (1×10^4 cells per well). After 24 h, Gd@C-dots at different concentrations were added. Incubation was carried out for 24 h with or without 2.5 mM CaCl2. To assess the particles' stability against transmetallation, which is the major cause of toxicity for conventional Gd contrast agents (Corot et al., J. Magn. Reson. Imaging 1998, 8(3):695-702), 2.5 mM Ca(II) was added into the incubation medium.

## CNC[C@H](O)[C@@H](O)[C@H](O)[C@H](O)CO.CNC[C@H](O)[C@@H](O)[C@H](O)[C@H](O)CO.O=C([O-])CN(CCN(CC(=O)[O-])CC(=O)O)CCN(CC(=O)[O-])CC(=O)O.[Gd+3] [Gd-DTPA, gadopentetic acid]
[1]
  r1 relaxivity: 3.10 mM⁻¹ s⁻¹
U87MG cells
  IC50 (cell death): 33.1 µg/mL
